Data reported in patent US5401734A, “Cephem compounds” (Fujisawa Phamaceutical Co., Ltd., priority 1988, dated 1995).
Converted amounts (≈) assume the structure as drawn.

System: P. aeruginosa 26
Assay: In vitro antibacterial activity, MIC by the two-fold agar-plate dilution method
Assay type: cell-based
Settings: Pseudomonas aeruginosa, heart infusion agar, 37° C., 20 hours, overnight culture 10^8 viable cells per ml, read-out: MIC (minimal inhibitory concentration)
Method: Now in order to show the utility of the object compound (I), the test data on MIC (minimal inhibitory concentration) of representative compound of this invention are shown in the following.
In vitro antibacterial activity was determined by the two-fold agar-plate dilution method as described below.
One loopful of an overnight culture of each test strain in Trypticase-soy broth (10^8 viable cells per ml) was streaked on heart infusion agar (HI-agar)containing graded concentrations of representative test compound, and the minimal inhibitory concentration (MIC) was expressed in terms of μg/ml after incubation at 37° C. for 20 hours.

MIC | Structure (SMILES)
≤ 0.025 µg/mL | CC(C)(O/N=C(\C(=O)N[C@@H]1C(=O)N2C(C(=O)[O-])=C(C[N+](C)(C)Cc3cc(=O)c(O)c[nH]3)CS[C@H]12)c1nsc(N)n1)C(=O)O [Test compound (1), 7β-[2-(5-Amino-1,2,4-thiadiazol-3-yl)-2-(1-carboxy-1-methylethoxyimino)acetamido]-3-[N,N-dimethyl-N-{(5-hydroxy-4-oxo-1,4-dihydropyridin-2-yl)methyl}ammonio]methyl-3-cephem-4-carboxylate (syn isomer)]
0.05 µg/mL (≈ 0.0789 µM) | CO/N=C(\C(=O)N[C@@H]1C(=O)N2C(C(=O)[O-])=C(C[N+]3(C)CCN(C(=O)c4cc(O)c(O)cn4)CC3)CS[C@H]12)c1nsc(N)n1 [Test compound (2), 7β-[2-(5-Amino-1,2,4-thiadiazol-3-yl)-2-methoxyiminoacetamido]-3-[1-methyl-4-(4,5-dihydroxy-2-pyridylcarbonyl)-1-piperazinio]methyl-3-cephem-4-carboxylate (syn isomer)]
